Consider eleven compounds from PMC12747935 (2025).

Common to all, as to experiment: ribozyme self-cleavage, PAGE with SYBR Gold
The test system of assay [1] is ThiC-TPP allosteric ribozyme (bridge of four base pairs) (RNA, riboswitch) GGGCGUAGCCUGAUGAGACUCGGGGUGCCCUUCUGCGUGAAGGCUGAGAAAUACCCGUAUCACCUGAUCUGGAUAAUGCCAGCGUAGGGAAGUCGAAACGUGGUGAAAGCCACGUCGCUGCGCCGCAGCUGUGGAA
As to conditions: 100 mM KCl, 20 mM MgCl2, 30 mM HEPES pH 7.5, 25°C, 30 min.

The test system of assay [2] is ThiC-TPP allosteric ribozyme (bridge of three base pairs) (RNA, riboswitch) GGGCGUAGCCUGAUGAGCUCGGGGUGCCCUUCUGCGUGAAGGCUGAGAAAUACCCGUAUCACCUGAUCUGGAUAAUGCCAGCGUAGGGAAGCGAAACGUGGUGAAAGCCACGUCGCUGCGCCGCAGCUGUGGAA
To be noted: 100 mM KCl, 20 mM MgCl2; 30 mM HEPES pH 7.5, 25°C, 30 min; apparent; text gives only 1 to 3 μM for both bridges.

Assay [3] concerns NCU-TPP allosteric ribozyme (bridge of three base pairs) (RNA, riboswitch) GGGCGUAGCCUGAUGAGACUACGGGCGCUGUCGAAAGACAGCUGAGAUUGUACCGUGAUUACUCGAUCAAGUUAAUGCUUGCGUGAGAAACGUCGAAACGUGGUGAAAGCCACGUCGCUGCGCCGCAGCUGUGGAA
As to conditions: 100 mM KCl, 20 mM MgCl2, 30 mM HEPES pH 7.5, 25°C, 30 min, half-maximal cleavage change.

Assay [4] concerns Motif_9307 allosteric ribozyme (RNA, riboswitch) GGGCGUAGCCUGAUGAGACUUAUAAUUUUUGAUAUAGAAAUAAAUUACAGUAGUUACACGCAAUAACCGUUGGUCCAAAUAGUAUCCUGUCCUGAGCCGACCGAGUCGAAACGUGGUGAAAGCCACGUCGCUGCGCCGCAGCUGUGGAA
To be noted: 100 mM KCl, 20 mM MgCl2; 30 mM HEPES pH 7.5, 25°C, 30 min; no change in cleavage.

Assay [5] deals with THEO allosteric ribozyme (RNA, aptamer) GGGCGUAGCCUGAUGAGCCCUAAUACCAGCCGAAAGGCCCUUGGCAGUAGAGCGAAACGUGGAAACACGUCGCUGCGAGCUGUGG
As to conditions: 100 mM KCl, 20 mM MgCl2, 30 mM HEPES pH 7.5, 25°C, 30 min; for binding: 100 μM compound.

On to `Cc1ncc(C[n+]2csc(CCOP(=O)(O)OP(=O)(O)O)c2C)c(N)n1`, for which the “apparent K D” value in assay [1] (apparent, half-maximal cleavage inhibition) stood at 1200 ± 200 nM; in assay [3] it was 2400 ± 1400 nM. For the same compound, the “K D” value in assay [2] was determined as 3000 ± 1100 nM.

Regarding `N[C@@H](Cc1cnc[nH]1)C(=O)O`, the binding entry in assay [1] (cleavage fraction 0.393 against 0.403 without ligand) is given as “no”.

Consider `NC(=O)CC[C@H](N)C(=O)O`, for which the binding result in assay [4] is listed as “no”.

As for `Cc1ncc(C[n+]2csc(CCO)c2C)c(N)n1`, in assay [1] (cleavage fraction 0.235 against 0.403 without ligand), the binding entry was “yes”.

`CSCC[C@H](N)C(=O)O`: the binding entry in assay [4] is reported as “no”.

Take `Cn1c(=O)c2[nH]cnc2n(C)c1=O`: in assay [5] (apparent, half-maximal cleavage induction), the “apparent K D” value amounted to 3100 ± 200 nM.

Turning to `Cn1c(=O)[nH]c2nc[nH]c2c1=O`, in assay [5] (cleavage fraction 0.300 against 0.163 without ligand), the binding result is “weak”.

On to `C[S+](CC[C@H](N)C(=O)O)C[C@H]1O[C@@H](n2cnc3c(N)ncnc32)[C@H](O)[C@@H]1O` (stereo partly shown), for which the binding result in assay [4] was “no”.

As to `Cn1c(=O)[nH]c(=O)c2[nH]cnc21`, in assay [5] (cleavage fraction 0.421 against 0.163 without ligand), the binding result is reported as “yes”.

As to `N[C@@H](CCS)C(=O)O`, the binding entry in assay [4] is given as “no”.

Take `Nc1ncnc2c1ncn2[C@@H]1O[C@H](CSCC[C@H](N)C(=O)O)[C@@H](O)[C@H]1O`: the binding result in assay [4] is recorded as “no”.
